Assay [1] addresses T1, cynomolgus monkey C17,20 lyase (Macaca fascicularis, UniProt Q2XVA1).
T1 construct: microsomal preparations of the enzyme from testicular tissue; from tissue; host or cells: cynomolgus monkey testes, microsomes
T1 sequence (Q2XVA1 1-508): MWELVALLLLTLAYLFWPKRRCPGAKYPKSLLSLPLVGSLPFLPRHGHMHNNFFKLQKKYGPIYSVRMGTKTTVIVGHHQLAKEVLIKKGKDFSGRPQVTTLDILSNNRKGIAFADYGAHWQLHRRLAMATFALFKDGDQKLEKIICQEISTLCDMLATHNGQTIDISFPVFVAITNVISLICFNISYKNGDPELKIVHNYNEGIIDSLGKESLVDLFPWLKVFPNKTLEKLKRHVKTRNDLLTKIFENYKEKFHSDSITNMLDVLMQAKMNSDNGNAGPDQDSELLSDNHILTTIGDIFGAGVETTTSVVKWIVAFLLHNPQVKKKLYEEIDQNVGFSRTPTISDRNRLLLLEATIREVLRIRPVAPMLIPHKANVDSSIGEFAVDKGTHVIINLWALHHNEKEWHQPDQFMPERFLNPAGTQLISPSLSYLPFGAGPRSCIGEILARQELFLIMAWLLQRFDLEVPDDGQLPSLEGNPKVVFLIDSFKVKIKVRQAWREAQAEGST
Kind of assay: In vitro C17,20 lyase assay, testicular microsomes. The class given is biochemical. The note with it: mean of duplicates. As for the experimental part:
In vitro C17,20 lyase assays: Compounds were tested for inhibition of cynomolgus monkey C17,20 lyase in vitro using microsomal preparations of the enzyme from testicular tissue. Testes were removed from anesthetized animals and flash frozen in liquid nitrogen. Microsomes were isolated as described in Schatzman et al., Anal. Biochem. 175, 219-226 (1988). The compound to be tested was dissolved in dimethyl sulfoxide and diluted in 0.05 M potassium phosphate buffer, pH 7.4, to give the desired concentrations of test compound, in an amount which contributed 0.1% v/v DMSO to the total assay volume. Assays contained 0.05 M potassium phosphate buffer, pH 7.4, an NADPH regenerating system (1 mM NADPH, 5 mM glucose-6-phosphate, 1 IU/mL glucose-6-phosphate dehydrogenase), test compound, substrate and microsomal protein in a total volume of 0.2 mL. Control assays contained all components, including dimethyl sulfoxide, but not test ccmpound. All assays were performed in duplicate. The test compound was incubated with 20 to 62 µg/mL microsomal protein, buffer, and the NADPH regenerating system described above at 34°C for 0 or 40 minutes. Aliquots of 180 µL were then removed and assayed for enzyme activity by addition to 7-[^3H]-17α-hydroxypregnenolone (11.2 mCi/mmole; 0.2 µCi per assay) plus unlabeled 17α-hydroxypregnenolone dissolved in DMSO, contributing 2.5% v/v to the final assay mix, and phosphate buffer to give a total substrate concentration of 0.05 µM (=Km) per assay and subsequent incubation at 34°C for 6 minutes. Each assay was terminated by addition of 5 mL of chloroform:methanol (2:1). Carrier steroids representing substrates and produces (17α-hydroxypregnenolone, dehydroepiandrosterone, and androst-5-ene-3β,17β-diol) and 0.8 mL of distilled, deionized water were also added at this time. The steroids were extracted by the method of Moore and Wilson (Methods in Enzymol., eds. O. Malley, B.W. and Hardman, J.G. 36, 1975, pp. 466-474). The organic phase containing the steroids was evaporated using nitrogen gas, the residues dissolved in 18% tetrahydrofuran (v/v) in hexane, and the steroids were separated by HPLC on a Si60 (5 µm) column (250 x 4 mm) using a gradient of 18-22% tetrahydrofuran (v/v) in hexane. Radioactivity in the steroid peaks was measured using a Radiomatic® Model ES or Model A515 Flo-One® detector.
The enzyme activity for each assay was calculated from the percent conversion of substrate to products, and the results were expressed as percent inhibition of control. The following results were obtained, wherein the values indicated are the mean of duplicate determinations: Table 1: […]

In the next assay the test system is PC-82 Human Tumor. Kind of assay: PC-82 human tumor growth in nude mice. The class given is in vivo, male nude mice. Conditions: MDL 103432 and MDL 105831 50 mg/kg B.I.D., MDL 15910 15 mg/kg B.I.D., per os; for Tumor Growth in PC-82 Human Tumor in Male Nude Mice, Day 7 / Tumor Growth in PC-82 Human Tumor in Male Nude Mice, Day 15 / Tumor Growth in PC-82 Human Tumor in Male Nude Mice, Day 21 / Tumor Growth in PC-82 Human Tumor in Male Nude Mice, Day 28 / Tumor Growth in PC-82 Human Tumor in Male Nude Mice, Day 35 / Tumor Growth in PC-82 Human Tumor in Male Nude Mice, Day -4: corrected group mean; for Tumor Growth in PC-82 Human Tumor in Male Nude Mice, Day -4: Day -4 (before treatment); for Δv/Δt (day 35-day 7): average tumor growth over 28 days from corrected group means. The text has this:
As described in van Steenbrugge, G.J. et al., J. Urol 131: 812-817 (1984) van Steenbrugge G.J. et al., The Prostate 11: 195-210 (1987) and Redding, T.W. et al., Cancer Research 52, 2538-2544 (1992), male nude mice (Hsd:athymic, Nude-nu) were obtained from Harlan Sprague Dawley. Mice were housed in sterilized micro-isolators and fed autoclaved ABLE® rodent chow (Purina Mills Inc., St. Louis, MO) and deionized water, adlibitum. Tumor-donating mice were first anesthetized using sodium pentobarbital and then sacrificed by cervical dislocation. The tumor was subsequently excised and placed in a petri dish containing ice-cold Hanks balanced salt solution. Tumors were cut into 2-3 mm cubes for implantation. Recipient animals were first anesthetized with 50 mg/kg pentobarbital, then implanted, by use of a trocar, with tumor fragments (one per mouse) in the dorsal area. Animals were separated into two control groups, one with vehicle alone and the other castrated, and the treatment groups, where n is the number of animals in each group.
Animals were selected for treatment groups based on tumor size. Each test compound was prepared as a solution or suspension in a lecithin vehicle (L-α-phosphatidylcholine type XV-E) containing methylparaben and propylparaben at a dose volume of 10 cc/kg. Animals were treated for 42 days by oral gavage (per os) seven days per week. Twenty-four hours after the last treatment the animals were euthenized by CO2 and tumors were removed and weighed. During the study period, mice were weighed and palpated weekly for tumors. In Table 5, average tumor growth is determined from the corrected group means over a 28 day period after treatment was started. […] The following animal data was deleted before computation of the corrected mean data in Table 5, Fig. 1: animals 4 and 44; Fig. 2: animals 10, 38 and 42; Fig. 3: Animal 39; Fig. 4: Animals 8, 9 and 49; Fig. 5: Animals 37 and 40 and 41.
Table 5 illustrates the average tumor growth in animals treated with 4-aza-17β-(cyclopropyloxy)-5α-androstan-3-one (MDL 103432; 50 mg/kg B.I.D.) 4-aza-17β-(cyclopropylamino)-androst-5(6)-en-3-one (MDL 105831; 50 mg/kg B.I.D.) and flutamide (MDL 15,910; 15 mg/kg B.I.D.), a known androgen receptor antagonist. The average growth rate of each tested compound relative to the vehicle and castrated controls is consistent with the in vivo inhibition of androgens.

In assay [1] (preincubation 0 min), `CC12CCC3C(CC[C@H]4NC(=O)CCC34C)C1CC[C@@H]2OC1CC1` (stereo partly drawn) [MDL 103,432, 17β-Cyclopropyloxy-4-aza-5α-androstan-3-one] came in with an inhibition at 0.1 µM of 23.4%, an inhibition at 1 µM of 33% and an inhibition at 10 µM of 68.3%. For the same molecule, in assay [1] (preincubation 40 min), the inhibition at 0.1 µM stood at 20.2%, the inhibition at 1 µM turned out to be 54.2% and at 10 µM the inhibition was 80.2%. Also, in the assay with PC-82 Human Tumor, the “Tumor Growth in PC-82 Human Tumor in Male Nude Mice, Day 7” value was found to be 180.2 mm^3; the “Tumor Growth in PC-82 Human Tumor in Male Nude Mice, Day 15” value is recorded as 220,2 mm^3; the “Tumor Growth in PC-82 Human Tumor in Male Nude Mice, Day 21” value is given as 288.2 mm^3; the “Tumor Growth in PC-82 Human Tumor in Male Nude Mice, Day 28” value was 385.9 mm^3. Also, in the assay on PC-82 Human Tumor, the “Tumor Growth in PC-82 Human Tumor in Male Nude Mice, Day 35” value turned out to be 427.4 mm^3; the “Tumor Growth in PC-82 Human Tumor in Male Nude Mice, Day -4” value came to 122.2 mm^3; the “Δv/Δt (day 35-day 7)” value turned out to be 8.83 mm^3/day.

As to `C[C@]12CC[C@H]3[C@@H](CC=C4NC(=O)CC[C@@]43C)[C@@H]1CC[C@@H]2NC1CC1` [MDL 105,831, 17β-Cyclopropylamino-4-aza-androst-5-en-3-one], in assay [1] (preincubation 0 min), the inhibition at 0.1 µM was 11.4%, at 1 µM the inhibition was 26% and the inhibition at 10 µM worked out at 69.6%. In assay [1] (preincubation 40 min), this molecule had an inhibition at 0.1 µM of 24.6%, an inhibition at 1 µM of 53.8% and an inhibition at 10 µM of 100%. Further, in the assay on PC-82 Human Tumor, the “Tumor Growth in PC-82 Human Tumor in Male Nude Mice, Day 7” value was determined as 188.3 mm^3; the “Tumor Growth in PC-82 Human Tumor in Male Nude Mice, Day 15” value is 254.3 mm^3; the “Tumor Growth in PC-82 Human Tumor in Male Nude Mice, Day 21” value is 304.3 mm^3; the “Tumor Growth in PC-82 Human Tumor in Male Nude Mice, Day 28” value was 530.7 mm^3. In the assay with PC-82 Human Tumor, the “Tumor Growth in PC-82 Human Tumor in Male Nude Mice, Day 35” value was 531.1 mm^3; the “Tumor Growth in PC-82 Human Tumor in Male Nude Mice, Day -4” value amounted to 124.9 mm^3; the “Δv/Δt (day 35-day 7)” value was found to be 12.24 mm^3/day.

The values are drawn from patent EP0880540B1, “17-BETA-CYCLOPROPYL(AMINO/OXY) 4-AZA STEROIDS AS ACTIVE INHIBITORS OF TESTOSTERONE 5-ALPHA-REDUCTASE AND C17-20-LYASE” (Aventis Pharmaceuticals Inc., priority 1996, dated 1997).
